Read-outs that look alike come from different tables or passages of the source.
Experiments:
ERRβ = molecular target: T1, ERRβ (Homo sapiens, UniProt O95718); assay: ThermoFluor thermal shift assay, ERRβ; type: binding; details: for ΔTm, thermal stabilization of ERRβ / ΔTm at 100 µM: 100 μM test compound, 0.1 mg/mL protein, 25 mM HEPES pH 8.0, Tm free protein 47.5 °C; for Kd: read-out: Estimated dissociation constant, ERRβ; for ΔTm at 100 µM: read-out: ΔTm, thermal stabilization of ERRβ
T1 sequence (O95718 208-432 limits assumed): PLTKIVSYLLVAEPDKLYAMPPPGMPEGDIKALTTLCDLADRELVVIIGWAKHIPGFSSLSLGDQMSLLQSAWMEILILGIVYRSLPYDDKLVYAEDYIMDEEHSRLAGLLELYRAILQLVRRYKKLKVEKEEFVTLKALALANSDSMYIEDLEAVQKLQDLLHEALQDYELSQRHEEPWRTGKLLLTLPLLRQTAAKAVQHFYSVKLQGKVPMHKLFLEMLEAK

ERRα = molecular target: T2, ERRα (Homo sapiens, UniProt P11474); assay: ThermoFluor thermal shift assay, ERRα; type: binding; details: for ΔTm, thermal stabilization of ERRα / ΔTm at 100 µM: 100 μM test compound, 0.1 mg/mL protein, 25 mM HEPES pH 8.0, 25 μM ANS, 2% DMSO, Tm free protein 54.4 °C; for ΔTm at 100 µM: read-out: ΔTm, thermal stabilization of ERRα
T2 sequence (P11474 193-421 limits assumed): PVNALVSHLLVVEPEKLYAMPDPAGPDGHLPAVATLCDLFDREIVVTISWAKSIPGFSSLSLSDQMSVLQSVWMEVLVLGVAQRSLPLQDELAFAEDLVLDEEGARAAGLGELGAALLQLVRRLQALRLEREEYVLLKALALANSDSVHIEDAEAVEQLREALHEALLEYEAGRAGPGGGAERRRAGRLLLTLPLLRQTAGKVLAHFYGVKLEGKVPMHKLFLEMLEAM

[1] = molecular target: T3, ligand binding domain of ERRγ (Homo sapiens, UniProt P62508); assay: ThermoFluor thermal shift assay, ERRγ ligand binding domain; details: for ΔTm, thermal stabilization of ERRγ / ΔTm at 100 µM: 100 μM test compound, 0.1 mg/mL protein, 25 mM HEPES pH 8.0, Tm free protein 49.6 °C; for Kd: read-out: Estimated dissociation constant, ERRγ; for ΔTm at 100 µM: read-out: ΔTm, thermal stabilization of ERRγ
T3 construct: 6His; made in house; host or cells: E. coli BL21(DE3)
T3 sequence (P62508 229-458): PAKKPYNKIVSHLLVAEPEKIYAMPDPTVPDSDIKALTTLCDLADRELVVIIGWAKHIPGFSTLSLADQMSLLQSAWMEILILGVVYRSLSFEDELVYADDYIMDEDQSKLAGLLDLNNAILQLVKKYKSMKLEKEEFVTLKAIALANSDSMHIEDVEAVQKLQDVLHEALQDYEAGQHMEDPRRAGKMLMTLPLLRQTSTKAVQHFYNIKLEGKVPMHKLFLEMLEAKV
Protocol: The vector was in E. coli BL21(DE3) and cultured in Minimal media (M9) at 37° C. to an OD595 0.6-0.8, followed by induction at 15° C. with 0.4 mM IPTG for 20 hours. The next day, the culture was harvested and lysed in buffer A (Buffer A: 20 mM Tris-HCl, pH 7.5, 0.4 M NaCl and 5 mM Imidazole) using an Emulsiflex-C5 french press (Avestin). Lysates were spun at 40,000×g for 45 minutes to remove insoluble material. The clarified lysate was applied on a Ni-NTA column and eluted with a linear gradient of imidazole. The protein was further purified by applying the eluent on a Superdex 200 HR 10/30 column (Amersham Pharmacia Biotech) equilibrated with Buffer B (Buffer B: 20 mM Tris-HCl pH 7.5, 0.2M NaCl, 1 mM EDTA and 1 mM DTT). […] Fractions were pulled and concentrated to 4 mg/ml and frozen in liquid nitrogen and stored at −80° C.
The ligand binding domain of ERRγ was screened against a library of known estrogen activators and a generic drug library using ThermoFluor®. ThermoFluor® is a miniaturized thermal shift assay, that has been developed for HTS applications; as a secondary assay for confirmation and characterization of hits; and as a functional assay to characterize orphan proteins. ThermoFluor® exploits the well-described phenomenon of ligand induced stabilization of macromolecules. Ligand binding energy adds directly to the ground state energy of a macromolecule and results in increased thermal stability. The degree of stabilization is proportional to the binding affinity of the ligand for the macromolecule.
Assay plates were prepared by dispensing 2 μL of a protein-dye solution and 2 μL of the test compound in a 384-well plate. […] Finally 1 μL of mineral oil was dispensed on top to prevent evaporation during the high throughput screen (HTS). ThermoFluor® is an HTS assay that measures protein unfolding based on fluorescence detection of the denatured form of the protein. The reporter for the protein unfolding event is the environmentally sensitive dye ANS that is incorporated in the screening buffer. During a typical experiment the 384-well plate is heated at a ramping rate of 1° C./min and the thermal unfolding of the protein is monitored at 1° C. intervals by measuring fluorescence changes detected through a CCD camera. Captured images are integrated and a melting curve is generated that relates fluorescence to fraction of unfolded protein as a function of temperature. […] Hits were identified from the screen by measuring an increase in the melting temperature of the protein.
In order to estimate binding affinities, it was taken into account that the oligomeric state of ERRγ which is a dimer (N2), and that of a single ligand (Lf) can interact per monomer subunit with equal affinity. The melting curve for such a system is described by the following three equilibria:
To compare dissociation constants at a common reference temperature, Tref, the following equation was used: […]
In the thermodynamic treatment of the data the following assumptions were made: i) the small ligand interacts only with the folded state of the protein, ii) the reactions are reversible; iii) the unfolding protein reaction is a two-state process and iv) ideal dilute solutions are being used (specific activity for protein and ligands is equal to 1).

ERα = molecular target: T4, ERα (Homo sapiens, UniProt P03372); assay: ThermoFluor thermal shift assay, ERα; type: binding
T4 sequence (P03372 1-595): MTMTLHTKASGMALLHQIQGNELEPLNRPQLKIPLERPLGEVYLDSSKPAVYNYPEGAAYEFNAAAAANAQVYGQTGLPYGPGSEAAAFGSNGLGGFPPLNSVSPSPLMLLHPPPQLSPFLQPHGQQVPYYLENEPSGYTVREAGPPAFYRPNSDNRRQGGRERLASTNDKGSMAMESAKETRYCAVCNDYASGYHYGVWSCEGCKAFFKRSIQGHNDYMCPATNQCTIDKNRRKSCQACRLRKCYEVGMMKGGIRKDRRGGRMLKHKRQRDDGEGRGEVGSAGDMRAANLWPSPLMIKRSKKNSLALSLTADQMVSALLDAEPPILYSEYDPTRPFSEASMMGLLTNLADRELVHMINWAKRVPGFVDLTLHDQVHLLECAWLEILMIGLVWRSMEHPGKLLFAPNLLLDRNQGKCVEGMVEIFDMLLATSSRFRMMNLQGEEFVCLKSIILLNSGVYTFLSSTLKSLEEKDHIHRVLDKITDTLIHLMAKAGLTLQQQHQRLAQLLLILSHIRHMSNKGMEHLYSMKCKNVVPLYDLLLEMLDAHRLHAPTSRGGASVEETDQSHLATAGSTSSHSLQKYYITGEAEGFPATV

ERβ = ERβ (Homo sapiens, UniProt Q92731); assay: ThermoFluor thermal shift assay, ERβ; type: binding; details: for Kd: calculated at reference temperature 25 °C from ΔTm of Table II, ΔHu 122 kcal/mol, read-out: Estimated dissociation constant, ERγ
ERβ, sequence (Q92731 whole entry, species assumed): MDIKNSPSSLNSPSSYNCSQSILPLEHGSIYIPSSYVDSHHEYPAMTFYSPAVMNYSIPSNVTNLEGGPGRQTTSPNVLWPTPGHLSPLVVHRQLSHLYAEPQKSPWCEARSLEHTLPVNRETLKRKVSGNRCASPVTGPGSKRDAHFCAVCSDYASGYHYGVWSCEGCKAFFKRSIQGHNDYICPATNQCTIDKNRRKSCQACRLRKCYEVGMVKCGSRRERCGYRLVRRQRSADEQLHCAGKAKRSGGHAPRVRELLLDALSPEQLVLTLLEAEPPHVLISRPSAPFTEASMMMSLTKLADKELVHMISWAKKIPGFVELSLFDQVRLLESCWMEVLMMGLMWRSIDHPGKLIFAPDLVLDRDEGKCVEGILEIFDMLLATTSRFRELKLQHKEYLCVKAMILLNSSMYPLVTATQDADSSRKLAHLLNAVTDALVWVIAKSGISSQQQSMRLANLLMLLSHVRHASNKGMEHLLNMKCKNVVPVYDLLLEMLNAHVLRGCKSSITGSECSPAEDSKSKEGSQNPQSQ

[2] = 100 μM test compound, 0.1 mg/mL protein, 25 mM HEPES pH 8.0, Tm free protein 39.1 °C
[3] = calculated at reference temperature 25 °C from ΔTm of Table II, ΔHu 112 kcal/mol, read-out: Estimated dissociation constant, ERα
[4] = 100 μM test compound, 0.1 mg/mL protein, 25 mM HEPES pH 8.0, Tm free protein 41.1 °C
[5] = 100 μM test compound, 0.1 mg/mL protein, 25 mM HEPES pH 8.0, Tm free protein 41.1 °C, read-out: ΔTm, thermal stabilization of ERβ
[6] = 100 μM test compound, 0.1 mg/mL protein, 25 mM HEPES pH 8.0, Tm free protein 39.1 °C, read-out: ΔTm, thermal stabilization of ERα

Molecule | ΔTm, thermal stabilization of ERRβ (ERRβ) | ΔTm, thermal stabilization of ERRα (ERRα) | ΔTm, thermal stabilization of ERRγ [1] | Kd (ERβ) | ΔTm at 100 µM (ERRβ) | ΔTm at 100 µM (ERRα) | ΔTm at 100 µM [1] | ΔTm at 100 µM (ERβ; [5]) | also measured
4-bromocresol | 0.5 °C | 0.1 °C | 4.3 °C | – | – | – | – | – | Kd (ERRβ; calculated at reference temperature 25 °C from ΔTm of Table II, ΔHu 155 kcal/mol): 17.2 µM; Kd ([1]; calculated at reference temperature 25 °C from ΔTm of Table II, ΔHu 165 kcal/mol): 0.633 µM
COc1cc2c(cc1O)CC[C@@H]1[C@@H]2CC[C@]2(C)[C@@H](O)CC[C@@H]12 [2-methoxy-estradiol] | −0.1 °C | 0.1 °C | 0.0 °C | 2.31 µM | – | – | – | – | ΔTm, thermal stabilization of ERα (ERα; [2]): 3.5 °C; Kd (ERα; [3]): 2.66 µM; ΔTm, thermal stabilization of ERβ (ERβ; [4]): 2.9 °C
C[C@]12CC[C@H]3[C@@H](CCC4=C[C@H](O)CC[C@@H]43)[C@@H]1CC[C@@H]2O [4-estrene-3-α-17-β-diol] | – | – | – | 0.157 µM | -0.1 °C | 0 °C | -0.1 °C | 7.7 °C | Kd (ERα): 1.27 µM; ΔTm at 100 µM (ERα; pH 8, read-out: ΔTm, thermal stabilization of ERα): 4.9 °C
CCc1cc(O)ccc1Cl [4chloro-3ethyl-phenol] | – | – | – | – | 0.4 °C | 0.2 °C | 4.1 °C | – | Kd (ERRβ): 18 µM; Kd [1]: 0.722 µM
C[C@]12CC[C@@H]3c4ccc(O)cc4CC[C@H]3[C@@H]1CC[C@H]2O [17-α-estradiol] | 0.0 °C | – | 1.3 °C | – | – | – | – | – | –
C[C@]12CC[C@@H]3c4ccc(O)cc4CC[C@H]3[C@@H]1CC[C@@H]2O [17-β-estradiol] | −0.1 °C | – | 0.6 °C | – | – | – | – | – | –
N#CC(Cc1ccc(O)cc1)c1ccc(O)cc1 (stereo not drawn) [DPN] | 0.2 °C | −0.2 °C | 0.3 °C | – | – | – | – | – | –
O=c1c(-c2ccc(O)cc2)coc2cc(O)ccc12 [Daidzein] | – | – | – | – | 0.3 °C | 0 °C | -0.1 °C | – | Interaction with / stabilization of ERRβ, in words (ERRβ; ThermoFluor): did not interact; Interaction with / stabilization of ERRα, in words (ERRα; ThermoFluor): did not interact; ΔTm at 100 µM (ERα; [6]): 4.1 °C; Interaction with / stabilization of ERRγ, in words ([1]; ThermoFluor): did not interact; ΔTm at 100 µM (ERβ; pH 8, read-out: ΔTm, thermal stabilization of ERβ): 8.9 °C
C[C@]12CC[C@@H]3c4ccc(O)cc4C[C@@H](CCCCCCCCC[S+]([O-])CCCC(F)(F)C(F)(F)F)[C@H]3[C@@H]1CC[C@@H]2O (stereo partly drawn) [ICI-182780] | – | – | – | – | 0 °C | 0 °C | 0 °C | 16.7 °C | ΔTm at 100 µM (ERα; [6]): 13.9 °C
CCCc1c(-c2ccc(O)cc2)nn(-c2ccc(O)cc2)c1-c1ccc(O)cc1 [PPT] | −3.5 °C | −2.3 °C | −1.8 °C | 0.0583 µM | – | – | – | – | ΔTm, thermal stabilization of ERα (ERα; [2]): 11.7 °C; Kd (ERα; [3]): 0.0387 µM; ΔTm, thermal stabilization of ERβ (ERβ; [4]): 9.5 °C
CCN(CC)CCOc1ccc(C(=C(Cl)c2ccccc2)c2ccccc2)cc1 [clomiphene] | – | – | – | 0.0521 µM | – | – | – | 9.7 °C | –
O=C(c1ccc(OCCN2CCCCC2)cc1)c1c(-c2ccc(O)cc2)sc2cc(O)ccc12 [raloxifene] | – | – | – | – | – | – | – | 11.9 °C | –
Oc1ccc(/C=C/c2cc(O)cc(O)c2)cc1 [resvesterol] | 0.2 °C | 0.0 °C | 0.4 °C | – | – | – | – | – | –

Reference: US7655756B2 (Johnson & Johnson Pharmaceutical Research & Development, LLC, priority 2005, dated 2010)
